Experimental data: ChEMBL document CHEMBL1201862, “PubChem BioAssay data set” (2004)
“And” between values parts separate entries of the source, which are not always exact repeats. Identical values can stand only once.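 48-hour exposure; five concentrations; linearly interpolated endpoints. GI50 is the concentration that inhibits growth by half.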 The source made the active and inactive calls. Rule as the data show it: active = GI50 up to about 1.1 µM and inactive = higher. Square brackets hold non-standard residues; d marks the D form. Peptide text beside a SMILES is read from it. * marks the point of attachment. Phe(4-NO2) = N[CH](Cc1ccc([N+](=O)[O-])cc1)C(=O)O; Cbz = O=C(OCc1ccccc1)*

Assays:
Experiment in all cases: growth of human tumour cells (NCI), 48 h
DLD-1 = tested on: DLD-1
XF498 = tested on: XF498
LXFL 529 = tested on: LXFL 529
DMS-273 = tested on: DMS-273
T47D = tested on: T47D
MDA-N = tested on: MDA-N
MDA-MB-435 = tested on: MDA-MB-435
MDA-MB-231 = tested on: MDA-MB-231
RXF 631 = tested on: RXF 631

| Structure (SMILES) | GI50 (DLD-1) | GI50 (XF498) | GI50 (LXFL 529) | GI50 (DMS-273) | GI50 (T47D) | GI50 (MDA-N) | GI50 (MDA-MB-435) | GI50 (MDA-MB-231) | GI50 (RXF 631) |
| --- | --- | --- | --- | --- | --- | --- | --- | --- | --- |
| Cc1ccc(N2C(=O)C3CSCN3C2=O)cc1 (stereo unspecified) | > 100 µM (inactive) | > 100 µM (inactive) |  |  |  |  |  |  |  |
| COC(=O)C(C(=O)C(=O)Nc1nnc(S)[nH]1)c1csc(-n2nc(-c3ccccc3)cc2-c2ccccc2)n1 (stereo unspecified) | > 100 µM (inactive) |  | > 100 µM (inactive) | > 100 µM (inactive) |  |  |  |  |  |
| N#Cc1c(OCCF)c2ccccc2n2c1nc1ccccc12 |  |  |  |  | > 100 µM (inactive) | > 100 µM (inactive) | 46.5 µM (inactive) | > 100 µM (inactive) |  |
| COc1nc(C#CCC(C)O)nc(OC)n1 (stereo unspecified) |  |  |  |  | 47.8 µM (inactive) | 30.6 µM (inactive) | 17.9 µM (inactive) | 21.2 µM (inactive) |  |
| CCOC(=O)C(C)NC(=O)NC12CC3CC(CC(F)(C3)C1)C2 (stereo unspecified) | > 100 µM (inactive) | 27.4 µM (inactive) | > 100 µM (inactive) | > 100 µM (inactive) |  |  |  |  |  |
| COc1ccc(/C(Cl)=C(\C=O)c2ccc(F)cc2)cc1OC | 21.8 µM (inactive) |  | 11.5 µM (inactive) | 27.4 µM (inactive) |  |  |  |  | 19.9 µM (inactive) |
| C1=N\CCOCC/N=C\c2ccc(cc2)OCc2cccc(n2)COc2ccc/1cc2 |  |  |  |  |  | > 100 µM (inactive) | > 100 µM (inactive) | 54.6 µM (inactive) |  |
| NC(=O)Cn1c(=O)[nH]c(=O)c2[nH]cnc21 |  |  | > 100 µM (inactive) | > 100 µM (inactive) |  |  |  |  |  |
| COc1ccc(NC(=O)CC(=O)N2N=C(N3c4ccccc4Sc4ccccc43)CC2c2ccccc2)cc1 (stereo unspecified) |  |  |  |  | > 100 µM (inactive) |  | > 100 µM (inactive) | > 100 µM (inactive) |  |
| Oc1ccc2ccccc2c1/N=N/c1ccccc1 |  |  |  |  |  | > 100 µM (inactive) | > 100 µM (inactive) | 54.5 µM (inactive) and > 82.4 µM (inactive) |  |
| Cc1cc(C)nc(NS(=O)(=O)c2ccc(NNC(=O)c3cccc4c(=O)c5ccccc5[nH]c34)cc2)n1 |  |  |  |  | 26.1 µM (inactive) | 75.9 µM (inactive) | 61.8 µM (inactive) | 37.6 µM (inactive) |  |
| N#CN=C(NCCO)NCCO | > 100 µM (inactive) | > 100 µM (inactive) | > 100 µM (inactive) |  |  |  |  |  | > 100 µM (inactive) |
| COCCCNc1nc(N)c(C#N)c(C#N)c1C#N |  |  |  |  | > 10 µM (inactive) | > 10 µM (inactive) | > 10 µM (inactive) | > 10 µM (inactive) |  |
| CCOC(=O)CCC(NC(=O)OCc1ccccc1)C(=O)NC(CCC(=O)OCC)C(=O)NC(CCC(=O)OCC)C(=O)NC(CCC(=O)OCC)C(=O)NC(CCC(=O)OCC)C(=O)NC(Cc1ccc([N+](=O)[O-])cc1)C(=O)NC(CCC(=O)OCC)C(=O)NC(CCC(=O)OCC)C(=O)NC(CCC(=O)OCC)C(=O)NC(CCC(=O)OCC)C(=O)NC(CCC(=O)OCC)C(=O)OCC (stereo unspecified) (Cbz-E(OEt)E(OEt)E(OEt)E(OEt)E(OEt)[Phe(4-NO2)]E(OEt)E(OEt)E(OEt)E(OEt)E(OEt)-OEt; configuration not given here) |  |  |  |  | > 50 µM (inactive) | > 50 µM (inactive) | > 50 µM (inactive) | > 5 µM (inactive) |  |
| O=C(O)CNC(=O)c1ccccc1O [SALICYLURIC ACID] |  |  |  |  | > 100 µM (inactive) | > 100 µM (inactive) | > 100 µM (inactive) | > 100 µM (inactive) |  |
| COc1ccc2nc(-c3ccc(O)cc3)ccc2c1 | > 100 µM (inactive) |  | > 100 µM (inactive) |  |  |  |  |  |  |
| Cc1cccc(NC(=O)/C(=N\N)C(c2cnc3ccc([N+](=O)[O-])cc3n2)[N+](=O)[O-])c1C (stereo unspecified) | > 100 µM (inactive) | > 100 µM (inactive) | > 100 µM (inactive) | > 100 µM (inactive) |  |  |  |  | > 100 µM (inactive) |
| C=C1[C@H](OC(C)=O)[C@H]2[C@@H](OC(C)=O)[C@@H](C)C[C@]2(C)C(=O)[C@H](C)/C=C/C(C)(C)C(=O)[C@H](OCC(C)C)[C@H]1OC(C)=O |  |  |  |  | > 25 µM (inactive) | 14.4 µM (inactive) | 20.7 µM (inactive) | > 25 µM (inactive) |  |
| CC(=O)OC1CCC2(C)C3CCC4(C)C(c5ccc(=O)oc5)CC5OC54C3CCC2(O)C1 (stereo unspecified) | 0.521 µM (active) | 2.92 µM (inactive) |  | 0.798 µM (active) |  |  |  |  |  |
